Patent US20180099931A1 (AbbVie S.à.r.l., priority 2016, published 2018)
Read-outs that look alike come from different tables or passages of the source.

Target: T1, F508delCFTR (Homo sapiens, UniProt P13569, DEL508-508)
T1 construct: expressed in transfected cells; host or cells: CFBE41o- human lung-derived epithelial cells (CFBE4lo-F508delCFTR-HRP), doxycycline-inducible
Assay: Cell Surface Expression-Horse Radish Peroxidase (CSE-HRP) Assay;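 as to Maximum % activity (with co-corrector): co-corrector and positive control are both the same reference corrector at 2 µM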;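 as to Maximum % activity (without co-corrector): percent of the 2 µM on-plate positive control corrector response above DMSO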
Format: cell-based
Details: for Maximum % activity (with co-corrector) / Emax: maximum at any tested concentration, normalized to on-plate positive control; for Emax: read-out: Maximum % activity (without co-corrector)

[1] = test compound without co-corrector, read-out: EC50 (without co-corrector)
[2] = with co-corrector (2 μM of 3-[(2R,4R)-4-({[1-(2,2-difluoro-1,3-benzodioxol-5-yl)cyclopropyl]carbonyl}amino)-7-methoxy-3,4-dihydro-2H-chromen-2-yl]benzoic acid), read-out: EC50 (with co-corrector)
[3] = test compound without co-corrector
[4] = with co-corrector (2 μM of 3-[(2R,4R)-4-({[1-(2,2-difluoro-1,3-benzodioxol-5-yl)cyclopropyl]carbonyl}amino)-7-methoxy-3,4-dihydro-2H-chromen-2-yl]benzoic acid)
[5] = CSE-HRP, test compound without co-corrector, read-out: EC50 (without co-corrector)
[6] = CSE-HRP, with co-corrector (2 μM of 3-[(2R,4R)-4-({[1-(2,2-difluoro-1,3-benzodioxol-5-yl)cyclopropyl]carbonyl}amino)-7-methoxy-3,4-dihydro-2H-chromen-2-yl]benzoic acid), read-out: EC50 (with co-corrector)
[7] = CSE-HRP, with co-corrector (2 μM)

T1 sequence (P13569 with tags, fused parts or gaps DEL508-508): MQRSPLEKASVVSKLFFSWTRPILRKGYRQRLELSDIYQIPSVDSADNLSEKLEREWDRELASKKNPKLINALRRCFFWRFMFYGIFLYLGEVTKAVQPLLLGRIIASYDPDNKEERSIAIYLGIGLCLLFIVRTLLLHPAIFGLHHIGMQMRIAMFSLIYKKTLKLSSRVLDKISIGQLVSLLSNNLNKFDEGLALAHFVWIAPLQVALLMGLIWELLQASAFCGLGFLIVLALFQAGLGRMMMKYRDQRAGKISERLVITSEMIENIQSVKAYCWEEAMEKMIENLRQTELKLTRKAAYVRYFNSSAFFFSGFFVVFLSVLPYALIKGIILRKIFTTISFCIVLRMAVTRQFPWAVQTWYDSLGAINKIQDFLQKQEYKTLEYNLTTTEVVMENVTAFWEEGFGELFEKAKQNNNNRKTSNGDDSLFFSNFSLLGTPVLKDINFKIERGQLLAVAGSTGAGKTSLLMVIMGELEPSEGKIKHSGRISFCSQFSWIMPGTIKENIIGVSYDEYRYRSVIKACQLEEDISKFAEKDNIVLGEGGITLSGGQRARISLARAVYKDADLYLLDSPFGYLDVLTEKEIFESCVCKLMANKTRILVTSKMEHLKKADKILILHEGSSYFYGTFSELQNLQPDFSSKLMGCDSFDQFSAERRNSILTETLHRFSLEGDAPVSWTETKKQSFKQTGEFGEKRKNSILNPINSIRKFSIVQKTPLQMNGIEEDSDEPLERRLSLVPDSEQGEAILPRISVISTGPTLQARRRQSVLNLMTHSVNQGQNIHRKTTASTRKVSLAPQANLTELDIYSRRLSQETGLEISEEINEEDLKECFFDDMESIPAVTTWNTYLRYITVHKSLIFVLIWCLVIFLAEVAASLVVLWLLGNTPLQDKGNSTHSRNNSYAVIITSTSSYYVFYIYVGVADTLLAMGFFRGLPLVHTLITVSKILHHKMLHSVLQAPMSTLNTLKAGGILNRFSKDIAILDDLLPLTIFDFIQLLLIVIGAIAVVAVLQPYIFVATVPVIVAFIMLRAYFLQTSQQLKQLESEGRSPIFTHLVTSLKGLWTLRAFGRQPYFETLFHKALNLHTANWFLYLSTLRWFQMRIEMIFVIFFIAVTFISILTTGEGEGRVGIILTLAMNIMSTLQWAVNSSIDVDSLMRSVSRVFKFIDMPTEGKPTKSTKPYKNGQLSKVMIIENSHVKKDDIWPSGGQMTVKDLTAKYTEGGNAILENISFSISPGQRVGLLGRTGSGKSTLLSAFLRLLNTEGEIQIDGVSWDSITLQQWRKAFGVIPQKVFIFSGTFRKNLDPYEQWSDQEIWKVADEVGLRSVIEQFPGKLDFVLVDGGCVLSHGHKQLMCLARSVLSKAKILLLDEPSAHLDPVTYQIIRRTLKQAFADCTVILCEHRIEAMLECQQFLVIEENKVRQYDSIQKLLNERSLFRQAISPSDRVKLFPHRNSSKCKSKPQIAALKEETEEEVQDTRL

SMILES | EC50 [1] | EC50 [2] | Maximum % activity (with co-corrector) (with co-corrector (2 μM)) | Emax (without co-corrector) | Emax [3] | Maximum % activity (with co-corrector) [4] | EC50 [5] | EC50 [6] | Maximum % activity (with co-corrector) [7] | Emax (CSE-HRP, without co-corrector)
COc1ncc(C(F)(F)F)cc1CN[C@H]1[C@H](C(C)(C)C)[C@@H](C(=O)O)N(C(=O)[C@H]2CCCCO2)[C@H]1c1ccccc1C(C)C [Example 85, (2S,3S,4S,5S)-3-tert-butyl-4-({[2-methoxy-5-(trifluoromethyl)pyridin-3-yl]methyl}amino)-1-[(2R)-oxane-2-carbonyl]-5-[2-(propan-2-yl)phenyl]pyrrolidine-2-carboxylic acid] | 1000 to 10000 nM | < 1000 nM | +++ (≥350) | > 200% | – | – | – | – | – | –
COc1cc2c(cc1CN[C@H]1[C@H](C(C)(C)C)[C@@H](C(=O)O)N(C(=O)[C@@H]3CCCCO3)[C@H]1c1cccc3c1OCC3)CCCC2 [Example I-302] | – | – | – | – | – | – | 1000 to 10000 nM | 1000 to 10000 nM | +++ (≥350) | 100 to 200%
COc1ccc(C(C)(C)C)cc1CN[C@H]1[C@H](C(C)(C)C)[C@@H](C(=O)O)N(C(=O)OC(C)C)[C@H]1c1cccnc1OC(F)F [Example I-227] | 1000 to 10000 nM | 1000 to 10000 nM | +++ (≥350) | 100 to 200% | – | – | – | – | – | –
COc1ccc(C(C)(C)C)cc1CN[C@H]1[C@H](C23CC(C2)C3)[C@@H](C(=O)O)N(C(=O)OC(C)C)[C@H]1c1cccnc1OC [Example 76, (2S,3S,4S,5S)-3-(bicyclo[1.1.1]pentan-1-yl)-4-{[(5-tert-butyl-2-methoxyphenyl)methyl]amino}-5-(2-methoxypyridin-3-yl)-1-{[(propan-2-yl)oxy]carbonyl}pyrrolidine-2-carboxylic acid] | 1000 to 10000 nM | 1000 to 10000 nM | +++ (≥350) | 100 to 200% | – | – | – | – | – | –
Cc1cc(C(F)(F)F)cc(N[C@@H]2[C@@H](C3CC3)[C@H](C(=O)O)N(C(=O)C3CCCCC3)[C@@H]2c2ccccc2)n1 (racemic) [Example I-7] | 1000 to 10000 nM | 1000 to 10000 nM | ++ (≥150 and <350) | < 100% | – | – | – | – | – | –
COc1ccc(C(C)(C)C)cc1CN[C@H]1[C@H](C(C)(C)C)[C@@H](C(=O)O)N(C(=O)OC(C)C)[C@H]1c1ccccc1OC [Example 13, (2S,3S,4S,5S)-3-tert-butyl-4-{[(5-tert-butyl-2-methoxyphenyl)methyl]amino}-5-(2-methoxyphenyl)-1-{[(propan-2-yl)oxy]carbonyl}pyrrolidine-2-carboxylic acid] | 1000 to 10000 nM | 1000 to 10000 nM | +++ (≥350) | 100 to 200% | – | – | – | – | – | –
COc1ncc(C2CC2)cc1CN[C@H]1[C@H](C(C)(C)C)[C@@H](C(=O)O)N(C(=O)[C@@H]2CCCCO2)[C@H]1c1ccccc1C(C)C [Example 115, (2S,3S,4S,5S)-3-tert-butyl-4-{[(5-cyclopropyl-2-methoxypyridin-3-yl)methyl]amino}-1-[(2S)-oxane-2-carbonyl]-5-[2-(propan-2-yl)phenyl]pyrrolidine-2-carboxylic acid] | 1000 to 10000 nM | < 1000 nM | +++ (≥350) | > 200% | – | – | – | – | – | –

More lines, now with the values ahead:

EC50 [1] | EC50 [2] | Maximum % activity (with co-corrector) (with co-corrector (2 μM)) | Emax (without co-corrector) | Emax [3] | Maximum % activity (with co-corrector) [4] | EC50 [5] | EC50 [6] | Maximum % activity (with co-corrector) [7] | Emax (CSE-HRP, without co-corrector) | SMILES
1000 to 10000 nM | < 1000 nM | – | – | > 200% | +++ (≥350) | – | – | – | – | COc1ccc(C(C)(C)C)cc1CN[C@H]1[C@H](C(C)(C)C)[C@@H](C(=O)O)N(C(=O)[C@H]2[C@H](C(F)(F)F)[C@H]3CC[C@@H]2O3)[C@H]1c1ccccc1 (relative stereo) [II-506]
< 1000 nM | < 1000 nM | +++ (≥350) | – | > 200% | – | – | – | – | – | COc1ccc(C(C)(C)C)cc1CN[C@@H]1[C@@H](C(C)(C)C)[C@H](C(=O)O)N(C(=O)C2CCCCC2)[C@@H]1c1ccccc1 (racemic) [III-107]
1000 to 10000 nM | 1000 to 10000 nM | – | – | 100 to 200% | +++ (≥350) | – | – | – | – | COc1ncc(C2=CCOC2)cc1CN[C@H]1[C@H](C(C)(C)C)[C@@H](C(=O)O)N(C(=O)C2CCCCC2)[C@H]1c1ccccc1 [II-350]
> 10000 nM | 1000 to 10000 nM | – | – | < 100% | ++ (≥150 and <350) | – | – | – | – | CC(C)(C)[C@@H]1[C@@H](NCc2cc(C(F)(F)F)cnc2N)[C@@H](c2ccccc2)N(C(=O)C2CCCCC2)[C@H]1C(=O)O (racemic) [III-74]
– | – | – | – | – | – | 1000 to 10000 nM | < 1000 nM | +++ (≥350) | > 200% | COc1ccc(-c2ccccc2)cc1CN[C@H]1[C@H](C(C)(C)C)[C@@H](C(=O)O)N(C(=O)OC(C)C)[C@H]1c1ccccc1 [II-160]
– | – | – | – | – | – | 1000 to 10000 nM | 1000 to 10000 nM | +++ (≥350) | 100 to 200% | COc1ccc(C(F)(F)F)cc1CN[C@H]1[C@H](C(C)(C)C)[C@@H](C(=O)O)N(C(=O)OC(C)C)[C@H]1c1ccccc1OC [II-136]
– | – | – | – | – | – | 1000 to 10000 nM | < 1000 nM | +++ (≥350) | > 200% | COc1ccc(C(C)(C)C)cc1CN[C@H]1[C@H](C(C)(C)C)[C@@H](C(=O)O)N(C(=O)C[C@H]2OCCc3ccccc32)[C@H]1c1ccccc1 [II-178]
– | – | – | – | – | – | 1000 to 10000 nM | 1000 to 10000 nM | +++ (≥350) | 100 to 200% | COc1cc(C(F)(F)F)ccc1CN[C@@H]1[C@@H](C(C)(C)OC)[C@H](C(=O)O)N(C(=O)C2CCCCC2)[C@@H]1c1ccccc1 (racemic) [II-88]
1000 to 10000 nM | 1000 to 10000 nM | ++ (≥150 and <350) | – | < 100% | – | – | – | – | – | CC(C)(C)[C@H]1[C@H](Nc2cncc3ccccc23)[C@H](c2ccccc2)N(C(=O)C2CCCCC2)[C@@H]1C(=O)O [III-162]
1000 to 10000 nM | < 1000 nM | – | – | > 200% | +++ (≥350) | – | – | – | – | COc1ccc(C(C)(C)C)cc1CN[C@H]1[C@H](C(C)(C)C)[C@@H](C(=O)O)N(C(=O)C2CCCC2)[C@H]1c1ccccc1 [II-332]
< 1000 nM | < 1000 nM | ++ (≥150 and <350) | – | < 100% | – | – | – | – | – | CC(C)(C)[C@H]1[C@H](NCc2ccccc2C(F)F)[C@H](c2ccccc2)N(C(=O)C2CCCCC2)[C@@H]1C(=O)O [III-139]
1000 to 10000 nM | < 1000 nM | – | – | > 200% | +++ (≥350) | – | – | – | – | COc1ccc(C(C)(C)C)cc1CN[C@H]1[C@H](C(C)(C)C)[C@@H](C(=O)O)N(C(=O)OC(C)C)[C@H]1c1ccccc1C [II-582]
– | – | – | – | – | – | 1000 to 10000 nM | 1000 to 10000 nM | +++ (≥350) | 100 to 200% | COc1ccc(C(C)(C)C)cc1CN[C@H]1[C@H](C(C)(C)C)[C@@H](C(=O)O)N(S(=O)(=O)c2ccn(C)n2)[C@H]1c1ccccc1 [II-154]
< 1000 nM | < 1000 nM | +++ (≥350) | – | 100 to 200% | – | – | – | – | – | COc1ccc(C(F)(F)F)cc1CN[C@H]1[C@H](C(C)(C)C)[C@@H](C(=O)O)N(C(=O)C2CC(C)CC(C)C2)[C@H]1c1ccccc1 (some centres unmarked) [III-196]
1000 to 10000 nM | < 1000 nM | – | – | > 200% | +++ (≥350) | – | – | – | – | COc1ccc(C2(C)CCC2)cc1CN[C@H]1[C@H](C(C)(C)C)[C@@H](C(=O)O)N(C(=O)[C@@H]2CCCO2)[C@H]1c1ccccc1C [II-578]
1000 to 10000 nM | 1000 to 10000 nM | – | – | > 200% | +++ (≥350) | – | – | – | – | COc1ccc(C(C)(C)C)cc1CN[C@H]1[C@H](C(C)(C)C)[C@@H](C(=O)O)N(C(=O)C2CC(F)C2)[C@H]1c1ccccc1 (some centres unmarked) [II-335]
